Test results taken from patent publication US20030207886A1, “Preparation containing quinoxaline derivatives” (priority 2000, published 2003).

Assay: Maxima of UV-A and UV-B absorption of quinoxaline derivatives in 2-propanol
Assay type: physicochemical
Details: 1 mg of substance per 100 ml of solvent; for UV-A (400 320 nm) Max. abs.: absorbance at UV-A maximum; for UV-B (280 320 nm) Max. abs.: absorbance at UV-B maximum; for UV-A (400 320 nm) λ [nm]: wavelength of UV-A maximum; for UV-B (280 320 nm) λ [nm]: wavelength of UV-B maximum
Protocol: The measurement was carried out in 2-propanol at a concentration of 1 mg of substance per 100 ml of solvent.

UV-A (400 320 nm) Max. abs.	UV-B (280 320 nm) Max. abs.	UV-A (400 320 nm) λ [nm]	UV-B (280 320 nm) λ [nm]	SMILES
0.360	0.373	365.0 nm	305.0	O=c1[nH]c2ccccc2nc1-c1ccccc1
0.173		335.0 nm		Clc1nc2ccccc2nc1-c1ccccc1
0.446		329.8 nm		Fc1nc2ccccc2nc1N(c1ncccn1)c1nc2ccccc2nc1F
0.248	0.757	365.2 nm	280.7	Clc1ccc(Nc2cnc3ccccc3n2)c(Cl)c1
0.424		395.4 nm		O=C(c1ccccc1)c1ccccc1Nc1cnc2ccccc2n1
0.306	0.837	386.9− nm	291.1	COc1ccc(Nc2cnc3ccccc3n2)cc1
0.281	0.679	386.1 nm	275.6	COc1cc(Nc2cnc3ccccc3n2)cc(OC)c1OC
0.456	0.455	380.1 nm	300.1	COc1cc(Nc2cnc3ccccc3n2)c(C(=O)O)cc1OC
0.325	0.452	376.8 nm	303.8	O=C(O)c1ccc(Nc2nc3ccccc3nc2-c2ccccc2)cc1
0.192		359.0 nm		FC(F)(F)c1cc(CNc2cnc3ccccc3n2)cc(C(F)(F)F)c1
0.262		359.8 nm		FC(F)(F)c1cc(Nc2cnc3ccccc3n2)cc(C(F)(F)F)c1
0.175	0.475	390.4 nm	287.6	COc1cc(Nc2nc3ccccc3nc2-c2ccccc2)cc(OC)c1OC
0.4130		354.0 nm		Nc1nc2ccccc2nc1NC(=O)c1cc(C(F)(F)F)cc(C(F)(F)F)c1
0.2602		364.0 nm		c1ccc(CNc2cnc3ccccc3n2)cc1
0.5594		381.0 nm		O=C(O)c1ccc(Nc2cnc3ccccc3n2)c(O)c1
0.5414	1.2839	375.0 nm	306.0	CCOC(=O)c1ccc(Nc2cnc3ccccc3n2)cc1
0.4443	0.8366	385.0 nm	294.0	C(#Cc1nc2ccccc2nc1C#Cc1ccccc1)c1ccccc1
0.1595		321.0 nm		Cc1ccc(S(=O)(=O)c2cnc3ccccc3n2)cc1
0.1731		329.0 nm		O=C(/C=C/c1ccccc1)c1cnc2ccccc2n1
1.0497	0.6584	365.0 nm	302.0	O=C(/C=C/C=C/c1ccccc1)c1cnc2ccccc2n1
0.5101	0.4556	381.0 nm	305.0	O=C(/C=C/c1ccc2c(c1)OCO2)c1cnc2ccccc2n1
0.7731		343.0 nm		CC(C)c1ccc(/C=C/C(=O)c2cnc3ccccc3n2)cc1
0.7687		341.0 nm		c1ccc2nc(-c3cnc4ccccc4n3)cnc2c1
0.4424		321.0 nm		Brc1cnc2ccccc2n1
0.2587		320.0 nm		c1ccc2nc(Oc3cnc4ccccc4n3)cnc2c1
